Converted amounts (≈) assume the structure as drawn. Where two headings read alike, the source gives them in different places.
Tests used:
[1] = tested on: AECO001 (ATCC25922); assay: MIC broth microdilution, AECO001; assay type: cell-based, E. coli; details: Escherichia coli
How it was run: (§1)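 Minimum inhibitory concentrations followed CLSI broth microdilution guidelines: cation-adjusted Mueller-Hinton broth, 2-fold serial drug dilutions, final inoculum 3×10^5–7×10^5 CFU/mL, ambient air at 35° C. for 18-24 hours. Quality-control strains and levofloxacin monitored performance.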

[2] = tested on: AECO063 (ATCC25922 bearing an acrAB mutation); assay: microbe, parasite or virus in culture; assay type: cell-based, E. coli; details: Escherichia coli, ATCC25922, read-out: MIC AECO063
How it was run: as §1

[3] = tested on: APAE001 (ATCC27853); assay: MIC broth microdilution, APAE001; assay type: cell-based, P. aeruginosa; details: Pseudomonas aeruginosa, ATCC27853, read-out: MIC APAE001, APAE001 (ATCC27853)
How it was run: as §1

[4] = tested on: APAE006 (strain of P. aeruginosa in which all efflux pumps are inactivated); assay: microbe, parasite or virus in culture; assay type: cell-based; details: Pseudomonas aeruginosa, read-out: MIC APAE006, APAE006, all efflux pumps inactivated
How it was run: (§2)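 Broth microdilution (CLSI); CA-MHB; 3×10^5–7×10^5 CFU/mL final; 2-fold dilutions; 35° C., ambient air, 18-24 h. APAE006 lacks all active efflux pumps.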

[5] = tested on: APAE006 in the presence of 8 micrograms per milliliter of polymyxin B nonapeptide; assay type: cell-based, P. aeruginosa; details: APAE006 with 8 micrograms per milliliter polymyxin B nonapeptide
How it was run: as §2

[6] = tested on: AABA1060 (clinical isolate of Acinetobacter baumannii); assay: MIC broth microdilution, AABA1060; assay type: cell-based; details: Acinetobacter baumannii, read-out: MIC AABA1060
How it was run: as §1

[7] = tested on: ASAU001 (laboratory strain of S. aureus, ATCC29213); assay: MIC broth microdilution, ASAU001; assay type: cell-based; details: Staphylococcus aureus, ATCC29213, read-out: MIC ASAU001
How it was run: as §1

[8] = ATCC25922, read-out: MIC AECO001
[9] = ATCC25922, read-out: MIC AECO001 HSA AGP

| Structure (SMILES) | MIC [1, 8] [µg/mL] | MIC [1, 9] [µg/mL] | MIC [2] [µg/mL] | MIC [3] [µg/mL] | MIC [4] [µg/mL] | MIC APAE006 + PMBN [5] | MIC [6] [µg/mL] | MIC [7] [µg/mL] |
| --- | --- | --- | --- | --- | --- | --- | --- | --- |
| CC(C)(N)C(NC(=O)c1ccc(C#CC#Cc2ccc(CNC3CC3)cc2)cc1)C(=O)NO (stereo not drawn) [Example 87-1, N-(2-Amino-1-hydroxycarbamoyl-2-methyl-propyl)-4-[4-(4-cyclopropylaminomethyl-phenyl)-buta-1,3-diynyl]-benzamide] | < 2 | 2 to 16 (≈ 4.5 to 36 µM) | < 2 | < 2 | < 2 | A (MIC's of 2.0 μg/mL or less = A) | < 2 | 16 to 64 (≈ 36 to 144 µM) |
| C[C@@H](N)[C@H](NC(=O)c1ccc(/C=C/C#CC2CCCCC2)cc1)C(=O)NO [Example 114-17] | < 2 | 2 to 16 (≈ 5.41 to 43.3 µM) | < 2 | 2 to 16 (≈ 5.41 to 43.3 µM) | < 2 | A (MIC's of 2.0 μg/mL or less = A) | 2 to 16 (≈ 5.41 to 43.3 µM) | 2 to 16 (≈ 5.41 to 43.3 µM) |
| CC(C)(N)[C@H](NC(=O)c1ccc(/C=C/C#Cc2ccccc2)cc1)C(=O)NO [Example 114-16] | < 2 | < 2 | < 2 | 2 to 16 (≈ 5.3 to 42.4 µM) | < 2 | A (MIC's of 2.0 μg/mL or less = A) | < 2 | 16 to 64 (≈ 42.4 to 170 µM) |
| C[C@@H](NCC(=O)NC[C@H](NC(=O)c1ccc(C#Cc2ccccc2)cc1)C(=O)NO)c1ccccc1 [Example 132-3] | < 2 | 2 to 16 (≈ 4.13 to 33 µM) | < 2 | 16 to 64 (≈ 33 to 132 µM) | < 2 | A (MIC's of 2.0 μg/mL or less = A) | 2 to 16 (≈ 4.13 to 33 µM) | 16 to 64 (≈ 33 to 132 µM) |
| C[C@@H](O)[C@H](NC(=O)c1ccc(/C=C/C#Cc2cccc(F)c2)cc1)C(=O)NO [Example 137-14] | < 2 | 16 to 64 (≈ 41.8 to 167 µM) | < 2 | 2 to 16 (≈ 5.23 to 41.8 µM) | < 2 | A (MIC's of 2.0 μg/mL or less = A) | 2 to 16 (≈ 5.23 to 41.8 µM) | 16 to 64 (≈ 41.8 to 167 µM) |
| C[C@@H](O)[C@H](NC(=O)c1ccc(C#CC#CC2CC2)cc1)C(=O)NO [Example 91-5] | < 2 | < 2 | < 2 | < 2 | < 2 | A (MIC's of 2.0 μg/mL or less = A) | 2 to 16 (≈ 6.13 to 49 µM) | 16 to 64 (≈ 49 to 196 µM) |
| CC(C)(N)[C@@H](NC(=O)c1ccc(C#CC#CC2CC2)cc1)C(=O)NO [Example 91-11] | < 2 | 16 to 64 (≈ 47.1 to 189 µM) | < 2 | 2 to 16 (≈ 5.89 to 47.1 µM) | < 2 | A (MIC's of 2.0 μg/mL or less = A) | 16 to 64 (≈ 47.1 to 189 µM) | 16 to 64 (≈ 47.1 to 189 µM) |
| C[C@@H](N)[C@H](NC(=O)c1ccc(C#C/C=C/c2ccncc2)cc1)C(=O)NO [Example 106-3] | < 2 | 16 to 64 (≈ 43.9 to 176 µM) | < 2 | < 2 | < 2 | A (MIC's of 2.0 μg/mL or less = A) | 16 to 64 (≈ 43.9 to 176 µM) | 16 to 64 (≈ 43.9 to 176 µM) |
| CC(C)(C)CNCc1ccc(C#Cc2ccc(C(=O)N[C@H](C(=O)NO)C(C)(C)N)cc2)cc1 [Example 122-2] | < 2 | 2 to 16 (≈ 4.44 to 35.5 µM) | < 2 | < 2 | < 2 | A (MIC's of 2.0 μg/mL or less = A) | 2 to 16 (≈ 4.44 to 35.5 µM) | 16 to 64 (≈ 35.5 to 142 µM) |
| CC(C)(O)[C@H](NC(=O)c1ccc(C#CC#Cc2cccc(F)c2)cc1)C(=O)NO [Example 82-24] | < 2 | 2 to 16 (≈ 5.07 to 40.6 µM) | < 2 | 2 to 16 (≈ 5.07 to 40.6 µM) | < 2 | A (MIC's of 2.0 μg/mL or less = A) | < 2 | 2 to 16 (≈ 5.07 to 40.6 µM) |
| C[C@@H](N)[C@H](NC(=O)c1ccc(C#CC#CC2CCNCC2)cc1)C(=O)NO [Example 137-22] | 16 to 64 (≈ 43.4 to 174 µM) | 16 to 64 (≈ 43.4 to 174 µM) | 16 to 64 (≈ 43.4 to 174 µM) | 2 to 16 (≈ 5.43 to 43.4 µM) | 2 to 16 (≈ 5.43 to 43.4 µM) | B (MIC's of greater than 2.0 μg/mL to 16.0 μg/mL = B) | 16 to 64 (≈ 43.4 to 174 µM) | 16 to 64 (≈ 43.4 to 174 µM) |
| CC(C)/C=C/C#Cc1ccc(C(=O)N[C@H](C(=O)NO)[C@@H](C)N)cc1 [Example 107-5] | < 2 | 2 to 16 (≈ 6.07 to 48.6 µM) | < 2 | 2 to 16 (≈ 6.07 to 48.6 µM) | < 2 | A (MIC's of 2.0 μg/mL or less = A) | < 2 | 2 to 16 (≈ 6.07 to 48.6 µM) |

Reference: patent US9617256B2 (priority 2007, dated 2017)
